Source: patent US20150218534A1, “MODIFIED DNA POLYMERASE” (TOYOBO CO., LTD., priority 2012, published 2015)

Columns and labels:
Assay type in all cases: biochemical
Psychrobacter DNA = experiment: PCR amplification using inosine-containing primers
Method: (§1) Using inosine-containing primers, the difference in PCR amplification was compared. For comparison, KOD mutants and KOD (wild-type), each mixed with 1 μg of a KOD antibody per U of the enzyme, and Taq DNA polymerase mixed with an antibody (a mixture of equal amounts of Taq DNA polymerase (produced by Toyobo Co. Ltd.) and Anti-Taq High (produced by Toyobo Co. Ltd.)) were used.
For PCR with the KOD mutants and PCR with the KOD, a buffer, MgSO4, and dNTPs included in KOD-Plus-Ver. 2 (produced by Toyobo Co. Ltd.) were used. 50 μl of individual reaction solutions containing 1× PCR buffer, 1.5 mM MgSO4, dNTPs (dATP, dTTP, dCTP, dGTP) in an amount of 0.2 mM, primers (SEQ ID NOs: 40 and 41) in an amount of 75 pmol or 150 pmol, 100 ng of Psychrobacter DNA, and 1 U of each respective enzyme mixed with the antibody were used. PCR was performed using a GeneAmp PCR system 9700 (Applied Biosystems) on the following schedule: preliminary reaction at 94° C. for 2 minutes, followed by 35 cycles, each cycle consisting of 98° C. for 10 seconds, 54° C. for 10 seconds, and 68° C. for 1 minute.
For PCR with the Taq DNA polymerase, 50 μl of a reaction solution containing 1× buffer included in Blend Taq (product of Toyobo), dNTPs (dATP, […], dCTP, dGTP) in an amount of 0.2 mM, primers in an amount of 75 pmol or 150 pmol (the same as above), 100 ng of Psychrobacter DNA, and 2.5 U of the enzyme mixed with the antibody was used. PCR was performed using a GeneAmp PCR system 9700 (Applied Biosystems) on the following schedule: preliminary reaction at 94° C. for 2 minutes, followed by 35 cycles, each cycle consisting of 94° C. for 30 seconds, 54° C. for 30 seconds, and 68° C. for 1 minute.
(§2) After the completion of each individual reaction, each of the resulting reaction solutions was analyzed using a DNA-1000 kit for MultiNA (produced by Shimadzu Corporation) to confirm amplified DNA fragments.

[1] = system: bisulfite-treated human genomic DNA (MINT1, RAR, THBS1, MINT31); experiment: PCR amplification of bisulfite-treated DNA; conditions: 40 cycles (FIG. 12)
Method: as §1, with “bisulfite-treated DNA as a template and various” for “inosine-containing”, “mutant (Y7A/V93K)” for “mutants”
The bisulfite-treated DNA used was human genomic DNA (produced by Roche) that had been treated with a MethylCode Bisulfite Conversion Kit of Invitrogen.
For PCR with the KOD mutant (Y7A/V93K) and PCR with the KOD, a buffer, MgSO4, and dNTPs included in KOD-Plus-Ver. 2 (produced by Toyobo Co. Ltd.) were used. 50 μl of individual reaction solutions containing 1× PCR buffer, 1.5 mM MgSO4, dNTPs (dATP, dTTP, dCTP, dGTP) in an amount of 0.2 mM, primers (SEQ ID NOs: 42 and 43 for amplification of MINT1; SEQ ID NOs: 44 and 45for amplification of RAR; SEQ ID NOs: 46 and 47 for amplification of THBS1; SEQ ID NOs: 48 and 49 for amplification of MINT31) in an amount of 15 pmol, 1 μl of bisulfite-treated DNA extract, and 1 U of each respective enzyme mixed with the antibody were used. PCR was performed using a GeneAmp PCR system 9700 (Applied Biosystems) on the following schedule: preliminary reaction at 94° C. for 2 minutes, followed by 40 cycles, each cycle consisting of 98° C. for 10 seconds, 55° C. for 15 seconds, and 68° C. for 1 minute.
For PCR with the Taq DNA polymerase, 50 μl of a reaction solution containing 1× buffer included in Blend Taq (product of Toyobo), dNTPs (dATP, […], dCTP, dGTP) in an amount of 0.2 mM, primers in an amount of 15 pmol (the same as above), 1 μl of bisulfite-treated DNA extract, and 2.5 U of the enzyme mixed with the antibody was used. […]
as §2

[2] = system: 1.3 kbp, 2.8 kbp, and 3.6 kbp of human β-globin; experiment: Amplification of long-chain DNA in PCR using dUTP; conditions: 1.3, 2.8, 3.6 kbp; 100% dUTP (FIGS. 9 and 10)
Method: Amplification of 1.3 kbp, 2.8 kbp, and 3.6 kbp of human β-globin in PCR using dUTP was compared. For amplification, each enzyme was used after being mixed with 1 μg of a KOD antibody per U of the enzyme. For PCR, components included in KOD-Plus-Ver. 2 (produced by Toyobo Co. Ltd.) were used. 50 μl of individual reaction solutions containing 1× PCR buffer, 1.5 mM MgSO4, dNTPs (dATP, dUTP, dCTP, dGTP) in an amount of 2 mM in which dTTP was replaced by dUTP, primers in an amount of 15 pmol (SEQ ID NOs: 25 and 26 for amplification of 1.3 kbp; SEQ ID NOs: 26 and 29 for amplification of 2.8 kbp; SEQ ID NOs: 30 and 31 for amplification of 3.6 kbp), 10 ng of human genomic DNA (produced by Roche), and 1 U of each respective enzyme mixed with the antibody were used. PCR was performed using a GeneAmp PCR system 9700 (Applied Biosystems) on the following schedule: preliminary reaction at 94° C. for 2 minutes, followed by 35 cycles, each cycle consisting of 98° C. for 10 seconds, 65° C. for 30 seconds, and 68° C. for about 1 minute per kbp (1 minute and 30 seconds for amplification of 1.3 kbp; 3 minutes for amplification of 2.8 kbp; 4 minutes for amplification of 3.6 kbp). As a control, amplification was also performed using Taq DNA polymerase. Taq DNA polymerase produced by Toyobo Co. Ltd. mixed with Anti-Taq High (produced by Toyobo Co. Ltd.) was used. 50 μl of a reaction solution containing 1× buffer included in Blend Taq, dNTPs (dATP, dUTP, dCTP, dGTP) in an amount of 2 mM in which dTTP was replaced by dUTP, primers in an amount of 10 pmol the same as the above), 10 ng of human genomic DNA (produced by Roche), and 2.5 U of the enzyme mixed with the antibody was used. PCR was performed using a GeneAmp PCR system 9700 (produced by Applied Biosystems) on the following schedule: preliminary reaction at 94° C. for 2 minutes, followed by 35 cycles, each cycle consisting of 94° C. for 30 seconds, 65° C. for 30 seconds, and 68° C. for about 1 minute per kbp (1 minute and 30 seconds for amplification of 1.3 kbp; 3 minutes for amplification of 2.8 kbp; 4 minutes for amplification of 3.6 kbp). After the completion of each individual reaction, 5 μl of each of the resulting reaction solutions was subjected to agarose electrophoresis, followed by ethidium bromide staining, and the amount of amplified DNA fragments was confirmed under ultraviolet irradiation. FIGS. 9 and 10 show the results.

[3] = system: 0.7 kbp of human β-globin amplified in PCR with dUTP; experiment: Degradation with UNG of DNA amplified in the presence of dUTP; conditions: 37° C. for 10 minutes (FIG. 13)
Method: It was confirmed whether 0.7 kbp of human β-globin amplified using KOD mutant with reduced uracil sensitivity (N210D/Y7A/P36H) in PCR with dUTP was degraded by being reacted with UNG. For PCR, components included in KOD-Plus-Ver. 2 (produced by Toyobo Co. Ltd.) were used. 50 μl of a reaction solution containing 1× PCR buffer, 1.5 mM MgSO4, dNTPs (dATP, dUTP, dCTP, dGTP) in an amount of 2 mM in which dTTP was replaced by dUTP, primers (SEQ ID NOs: 50 and 51) in an amount of 15 pmol, 10 ng of human genomic DNA (produced by Roche), and 1 U of the enzyme mixed with an antibody was used. PCR was performed using a GeneAmp PCR system 9700 (Applied Biosystems) on the following schedule: preliminary reaction at 94° C. for 2 minutes, followed by 35 cycles, each cycle consisting of 98° C. for 10 seconds, 60° C. for 30 seconds, and 68° C. for 1 minute. The amplification products were diluted with the above-mentioned 1× PCR buffer to 10 ng/μl, 8 μl of the diluted amplification products was mixed with 2 μl of various concentrations of UNG (produced by Roche), and the mixtures were reacted at 37° C. for 10 minutes. After the completion of each individual reaction, each of the mixtures was analyzed using a DNA-1000 kit for MultiNA (produced by Shimadzu Corporation) to confirm the amount of amplification products.

In the case of “Taq DNA polymerase: Taq DNA polymerase produced by Toyobo Co. Ltd. mixed with Anti-Taq High, used as control [reference compound]”, the “amount of inosine-containing primers at which amplification was observed” value (Psychrobacter DNA; 75 pmol or 150 pmol tested) is reported as 150 pmol, the “amplification with inosine-containing primers” value (Psychrobacter DNA; primers 75 pmol or 150 pmol, 35 cycles (FIG. 11)) is reported as “stable amplification was confirmed” and the “amplification of bisulfite-treated DNA” value [1] is reported as “stable amplification was confirmed”. For the same molecule, the “amount of amplification of long-chain DNA with dUTP” value [2] was “cannot be amplified”.

B1: Pfu Y7A/V93K: modified Pfu DNA polymerase with Y7A and V93K (protein, UniProt P61875 1-775, looked up, variant Y7A V93K)
DNA polymerase: MILDVDAITEEGKPVIRLFKKENGKFKIEHDRTFRPYIYALLRDDSKIEEVKKITGERHGKIVRIVDVEKVEKKFLGKPITVWKLYLEHPQDKPTIREKVREHPAVVDIFEYDIPFAKRYLIDKGLIPMEGEEELKILAFDIETLYHEGEEFGKGPIIMISYADENEAKVITWKNIDLPYVEVVSSEREMIKRFLRIIREKDPDIIVTYNGDSFDFPYLAKRAEKLGIKLTIGRDGSEPKMQRIGDMTAVEVKGRIHFDLYHVITRTINLPTYTLEAVYEAIFGKPKEKVYADEIAKAWESGENLERVAKYSMEDAKATYELGKEFLPMEIQLSRLVGQPLWDVSRSSTGNLVEWFLLRKAYERNEVAPNKPSEEEYQRRLRESYTGGFVKEPEKGLWENIVYLDFRALYPSIIITHNVSPDTLNLEGCKNYDIAPQVGHKFCKDIPGFIPSLLGHLLEERQKIKTKMKETQDPIEKILLDYRQKAIKLLANSFYGYYGYAKARWYCKECAESVTAWGRKYIELVWKELEEKFGFKVLYIDTDGLYATIPGGESEEIKKKALEFVKYINSKLPGLLELEYEGFYKRGFFVTKKRYAVIDEEGKVITRGLEIVRRDWSEIAKETQARVLETILKHGDVEEAVRIVKEVIQKLANYEIPPEKLAIYEQITRPLHEYKAIGPHVAVAKKLAAKGVKIKPGMVIGYIVLRGDGPISNRAILAEEYDPKKHKYDAEYYIENQVLPAVLRILEGFGYRKEDLRYQKTRQVGLTSWLNIKKS
For B1, the “degradation with UNG of DNA amplified with the polymerase in the presence of dUTP” value [3] was “the DNA was degraded with UNG” and the “amount of amplification of long-chain DNA with dUTP” value [2] was “provided larger amounts of amplification”.
